Active and inactive are the calls of the source. The calls are words filed in the database; no cut-off is given here.
Experiments:
Acanthamoeba hatchetti = experiment: Amoebicidal activity against Trophozoites of Acanthamoeba hatchetti 11DS assessed as rounding of the cells at 55 mM in peptone yeast extract glucose medium at pH 7 after 30 mins by hemocytometer using trypan blue stain; type: functional, organism-based
Acanthamoeba castellanii = experiment: Amoebicidal activity against excysted trophozoites of Acanthamoeba castellanii 40AB at 55 mM in peptone yeast extract glucose medium after 11 days by hemocytometer using trypan blue stain; type: functional

O=S(=O)(O)CCNCl
Activity (Acanthamoeba hatchetti): Active | Activity (Acanthamoeba castellanii): 130000

Reference: ChEMBL document CHEMBL1151469, “Cytotoxic activity of N-chlorotaurine on Acanthamoeba spp” (Antimicrob Agents Chemother, 2008)
